Laboratory results: patent US20200055871A1, “ACTIVATORS OF THE RETINOIC ACID INDUCIBLE GENE "RIG-I" PATHWAY AND METHODS OF USE THEREOF” (Kineta Immuno-Oncology LLC, priority 2018, published 2020)
Like-named read-outs stand apart in the source and are kept apart here.

Legend:
[1] = system: murine CT26 colon carcinoma cells; assay: RIG-I dependent CXCL10 secretion by CT26 cells (ELISA); assay type: cell-based; conditions: supernatant 24 h after stimulation
Experimental: (§1) The CT26 murine colon carcinoma cell line (ATCC) was used to evaluate the induction of CXCL10 secretion. CXCL10 is an important chemokine in tumor immune biology that recruits tumor-specific T cells to the tumor. To confirm that compound-mediated CXCL10 production was RIG-I specific, RIG-1 deficient CT2-RIG-I−/−cells were generated by Kineta Inc. using CRISPR technology.
(§2) CT26 cells were seeded at a density of 1×10^4 cells per well on a 96-well tissue culture plate in 100 μL of cell culture and cells were incubated at 37° C. and 5% CO2 for 24 hr. Next, CT26 cells were treated with compounds at the indicated concentrations. CXCL10 was quantified by ELISA from supernatants taken 24 h after compound stimulation by use of the CXCL10 Duo Set ELISA kit (Cat #DY466, R&D, Minneapolis, Minn., USA) according to the manufacturer's instructions.
(§3) CXCL10 secretion by CT26 cells in response to compounds (in an amount of 5 to 20 μM) of the present disclosure is shown in Table 8. The compound-induced CXCL10 production was RIG-I dependent, since none of the compounds mediated CXCL10 secretion in RIG-I deficient CT26 RIG-I−/−cells (about 0 pg/mL of CXCL10, or below the level of quantitation). The compounds (10 μM, *20 μM, **5 μM) are indicated in the table as follows: “≠” indicates less than 100 pg/mL; “+” indicates 100-199 pg/mL; “++” indicates 200-399 pg/mL; “+++” indicates 400-799 pg/mL; “++++” indicates 800 to 1599 pg/mL; “+++++” indicates greater than or equal to 1600 pg/ml.

[2] = system: IRF3 signaling pathway in THP1-Lucia™ ISG cells; assay: THP1-Lucia ISG reporter assay: induction of IRF3-dependent gene expression (secreted luciferase); assay type: cell-based, human; conditions: Homo sapiens, THP1-Lucia ISG, read-out: fold increase of IRF3-dependent luciferase activity over background, THP1 ISG
Experimental: The compounds were evaluated in the THP1-Lucia™ ISG (interferon stimulated genes) reporter assay to determine if the compounds activate the IRF3 signaling pathway. The THP1-Lucia™ cells (InvivoGen) express the secreted luciferase (Lucia) reporter gene under the control of an IRF-inducible promoter. The reporter cell line was developed from human monocytic leukemia THP-1 cells.
The promoter was comprised of five IFN-stimulated response elements (ISRE) fused to an ISG54 minimal promoter which is unresponsive to NF-kB or AP-1 pathways. […] The IRF3-deficient THP1-Lucia™ ISG IRF3−/−reporter cell line was generated by CRISPR technology from the parent THP1-Lucia™ ISG reporter cell line.
THP1-Lucia™ ISG cells and IRF3-deficient THP1-Lucia™ ISG IRF3−/−cells were differentiated with PMA (100 ng/ml) and stimulated with compounds at the indicated concentrations (5 to 20 μM), positive control, or not treated (background). Luciferase secretion was quantified using the QUANTI-Luc luciferase assay system (InvivoGen) 18 h after stimulation. Data are shown as fold increase luciferase activity over background in Table 7 and represent the IRF3-dependent ISG54 promoter activity by the THP1-Lucia™ ISG cells in response to compounds. […] The fold increase of compounds (10 μM, *20 μM, **5 μM) induced IRF3 dependent luciferase activity is indicated as follows: “≠” indicates less than 2.4 fold increase; “+” indicates a 2.4-4.9 fold increase; “++” indicates a 5-9.9 fold increase; “+++” indicates a 10-19 fold increase; “++++” indicates a 20-39 fold increase; “+++++” indicates greater than or equal to 40 fold increase.

[3] = system: RIG-I deficient CT26 RIG-I−/− cells; assay: CXCL10 secretion by RIG-I deficient CT26 RIG-I−/− cells (ELISA); assay type: cell-based, murine; conditions: compound 5 to 20 μM, 24 h
Experimental: as §1, §2, §3

[4] = 10 μM compound, PMA-differentiated cells, 18 h after stimulation
[5] = 20 μM compound (*), PMA-differentiated cells, 18 h after stimulation

Compound: O=C(Nc1nc2ccc3scnc3c2s1)c1cc2ccccc2cc1OCCCN1CCOCC1 [Example 1, N-{3,10-dithia-5,12-diazatricyclo[7.3.0.0^2,6]dodeca-1,4,6,8,11-pentaen-4-yl}-3-[3-(morpholin-4-yl)propoxy]naphthalene-2-carboxamide]
- CXCL10 secretion, CT26 ([1]; 10 μM compound): ++++ (800 to 1599 pg/mL)
- fold induction at 10 µM [2, 4]: 2.4 to 4.9
- CXCL10 secretion, CT26 RIG-I−/− [3]: −

Compound: COc1cc(OC)cc(C(=O)Nc2nc3ccc4sc(C)nc4c3s2)c1 [Example 2, 3,5-dimethoxy-N-{11-methyl-3,10-dithia-5,12-diazatricyclo[7.3.0.0^2,^6]dodeca-1,4,6,8,11-pentaen-4-yl}benzamide]
- CXCL10 secretion, CT26 ([1]; 20 μM compound (*)): ++++* (800 to 1599 pg/mL)
- fold induction at 10 µM [2, 4]: 5 to 9.9
- CXCL10 secretion, CT26 RIG-I−/− [3]: −

Compound: CCN(CC)S(=O)(=O)c1ccc(C(=O)Nc2nc3ccc4sc(C)nc4c3s2)cc1 [Example 3, 4-(diethylsulfamoyl)-N-{11-methyl-3,10-dithia-5,12-diazatricyclo[7.3.0.0^2,^6]dodeca-1,4,6,8,11-pentaen-4-yl}benzamide]
- CXCL10 secretion, CT26 ([1]; 20 μM compound (*)): ++* (200-399 pg/mL)
- fold induction at 20 µM [2, 5]: 5 to 9.9
- CXCL10 secretion, CT26 RIG-I−/− [3]: −

Compound: O=C(Nc1nc2ccc3scnc3c2s1)c1ccc2c(c1)OCO2 [Example 4, N-{3,10-dithia-5,12-diazatricyclo[7.3.0.0^2,^6]dodeca-1,4,6,8,11-pentaen-4-yl}-2H-1,3-benzodioxole-5-carboxamide]
- CXCL10 secretion, CT26 ([1]; 10 μM compound): +++ (400-799 pg/mL)
- fold induction at 10 µM ([2]; 18 h): 10 to 19
- CXCL10 secretion, CT26 RIG-I−/− [3]: −

Compound: CCCCCOc1ccc(C(=O)Nc2nc3ccc4sc(C)nc4c3s2)cc1 [Example 5, N-{11-methyl-3,10-dithia-5,12-diazatricyclo[7.3.0.0^2,^6]dodeca-1,4,6,8,11-pentaen-4-yl}-4-(pentyloxy)benzamide]
- CXCL10 secretion, CT26 ([1]; 20 μM compound (*)): +* (100-199 pg/mL)
- fold induction at 10 µM [2, 4]: 5 to 9.9
- CXCL10 secretion, CT26 RIG-I−/− [3]: −

Compound: Cc1nc2c(ccc3nc(NC(=O)c4ccc(N(C)C)cc4)sc32)s1 [Example 6, 4-(dimethylamino)-N-{11-methyl-3,10-dithia-5,12-diazatricyclo[7.3.0.0^2,^6]dodeca-1,4,6,8,11-pentaen-4-yl}benzamide]
- CXCL10 secretion, CT26 ([1]; 10 μM compound): ++ (200-399 pg/mL)
- fold induction at 10 µM [2, 4]: 10 to 19
- CXCL10 secretion, CT26 RIG-I−/− [3]: −

Compound: O=C(Nc1nc2ccc3scnc3c2s1)c1ccc(Cl)c(C(F)(F)F)c1 [Example 7, 4-chloro-N-{3,10-dithia-5,12-diazatricyclo[7.3.0.0^2,^6]dodeca-1,4,6,8,11-pentaen-4-yl}-3-(trifluoromethyl)benzamide]
- CXCL10 secretion, CT26 ([1]; 10 μM compound): ++++ (800 to 1599 pg/mL)
- fold induction at 10 µM [2, 4]: 2.4 to 4.9
- CXCL10 secretion, CT26 RIG-I−/− [3]: −

Compound: O=C(Nc1nc2ccc3scnc3c2s1)c1cccc(C(F)(F)F)c1 [Example 8, N-{3,10-dithia-5,12-diazatricyclo[7.3.0.0^2,^6]dodeca-1,4,6,8,11-pentaen-4-yl}-3-(trifluoromethyl)benzamide]
- CXCL10 secretion, CT26 ([1]; 20 μM compound (*)): +* (100-199 pg/mL)
- fold induction at 20 µM [2, 5]: 10 to 19
- CXCL10 secretion, CT26 RIG-I−/− [3]: −

Compound: O=C(Nc1nc2ccc3scnc3c2s1)c1cccc([N+](=O)[O-])c1 [Example 9, N-{3,10-dithia-5,12-diazatricyclo [7.3.0.0^2,^6]dodeca-1,4,6,8,11-pentaen-4-yl}-3-nitrobenzamide]
- CXCL10 secretion, CT26 ([1]; 10 μM compound): +++ (400-799 pg/mL)
- fold induction at 10 µM [2, 4]: 2.4 to 4.9
- CXCL10 secretion, CT26 RIG-I−/− [3]: −

Compound: O=C(Nc1nc2ccc3scnc3c2s1)c1cc2ccccc2s1 [Example 11, N-{3,10-dithia-5,12-diazatricyclo[7.3.0.0^2,^6]dodeca-1,4,6,8,11-pentaen-4-yl}-1-benzothiophene-2-carboxamide]
- CXCL10 secretion, CT26 ([1]; 10 μM compound): ++ (200-399 pg/mL)
- fold induction at 10 µM [2, 4]: 2.4 to 4.9
- CXCL10 secretion, CT26 RIG-I−/− [3]: −

Compound: O=C(Nc1nc2ccc3scnc3c2s1)c1ccc2nsnc2c1 [Example 12, N-{3,10-dithia-5,12-diazatricyclo[7.3.0.0^2,^6]dodeca-1,4,6,8,11-pentaen-4-yl}-2,1,3-benzothiadiazole-5-carboxamide]
- CXCL10 secretion, CT26 ([1]; 10 μM compound): ++++ (800 to 1599 pg/mL)
- fold induction at 10 µM [2, 4]: 5 to 9.9
- CXCL10 secretion, CT26 RIG-I−/− [3]: −

Compound: O=C(Nc1nc2ccc3scnc3c2s1)c1ccc2c(c1)CCCC2 [Example 13, N-{3,10-dithia-5,12-diazatricyclo[7.3.0.0^2,^6]dodeca-1,4,6,8,11-pentaen-4-yl}-5,6,7,8-tetrahydronaphthalene-2-carboxamide]
- CXCL10 secretion, CT26 ([1]; 10 μM compound): +++ (400-799 pg/mL)
- fold induction at 20 µM ([2]; 18 h): 5 to 9.9
- CXCL10 secretion, CT26 RIG-I−/− [3]: −

Compound: O=C(Nc1nc2ccc3scnc3c2s1)c1ccc2sccc2c1 [Example 14, N-{3,10-dithia-5,12-diazatricyclo[7.3.0.0^2,^6]dodeca-1,4,6,8,11-pentaen-4-yl}-1-benzothiophene-5-carboxamide]
- CXCL10 secretion, CT26 ([1]; 20 μM compound (*)): ++* (200-399 pg/mL)
- fold induction at 10 µM [2, 4]: 10 to 19
- CXCL10 secretion, CT26 RIG-I−/− [3]: −

Compound: O=C(Nc1nc2ccc3scnc3c2s1)c1ccc2occc2c1 [Example 15, N-{3,10-dithia-5,12-diazatricyclo[7.3.0.0^2,^6]dodeca-1,4,6,8,11-pentaen-4-yl}-1-benzofuran-5-carboxamide]
- CXCL10 secretion, CT26 ([1]; 10 μM compound): ++ (200-399 pg/mL)
- fold induction at 20 µM [2, 5]: 2.4 to 4.9
- CXCL10 secretion, CT26 RIG-I−/− [3]: −

Compound: COc1cc2ccccc2cc1C(=O)Nc1nc2ccc3scnc3c2s1 [Example 16, N-{3,10-dithia-5,12-diazatricyclo[7.3.0.0^2,^6]dodeca-1,4,6,8,11-pentaen-4-yl}-3-methoxynaphthalene-2-carboxamide]
- CXCL10 secretion, CT26 ([1]; 10 μM compound): ++ (200-399 pg/mL)
- fold induction at 10 µM [2, 4]: 10 to 19
- CXCL10 secretion, CT26 RIG-I−/− [3]: −

Compound: Cn1c(C(=O)Nc2nc3ccc4scnc4c3s2)cc2ccccc21 [Example 17, N-{3,10-dithia-5,12-diazatricyclo[7.3.0.0^2,^6]dodeca-1,4,6,8,11-pentaen-4-yl}-1-methyl-1H-indole-2-carboxamide]
- CXCL10 secretion, CT26 ([1]; 10 μM compound): ++ (200-399 pg/mL)
- fold induction at 10 µM [2, 4]: 10 to 19
- CXCL10 secretion, CT26 RIG-I−/− [3]: −

Compound: CCc1nc2c(ccc3nc(NC(=O)c4ccc5ccccc5c4)sc32)s1 [Example 18, N-{11-ethyl-3,10-dithia-5,12-diazatricyclo[7.3.0.0^2,^6]dodeca-1,4,6,8,11-pentaen-4-yl}naphthalene-2-carboxamide]
- CXCL10 secretion, CT26 ([1]; 20 μM compound (*)): +* (100-199 pg/mL)
- fold induction at 10 µM [2, 4]: 20 to 39
- CXCL10 secretion, CT26 RIG-I−/− [3]: −

Compound: Cn1c(C(=O)Nc2cc3ccc4scnc4c3s2)cc2ccccc21 [Example 71, N-{5,12-dithia-3-azatricyclo[7.3.0.0^2,^6]dodeca-1,3,6,8,10-pentaen-11-yl}-1-methyl-1H-indole-2-carboxamide]
- CXCL10 secretion, CT26 ([1]; 10 μM compound): + (100-199 pg/mL)
